{
  "source": "patent US20230234917A1",
  "about": "“ASPARAGINE DERIVATIVES AND METHODS OF USING SAME” (priority 2020, published 2023)",
  "key": {"ClbP [1]": {"molecular_target": "T1, ClbP (Escherichia coli, UniProt Q0P7K6)", "assay": "ClbP cell lysate activity (inhibition) assay, fluorogenic substrate", "type": "biochemical", "settings": "ClbP Lysate Inhibition Assay: IC50, E. coli ClbP+ lysozyme-EDTA lysates, 5 μM fluorogenic substrate, inhibitor 0-300 μM, 37° C., singlicate", "method_in_brief": "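E. coli ClbP+ overnight culture lysed with lysozyme-EDTA (30 min, 37 °C); lysate (fivefold concentrated vs culture) mixed with inhibitor (0–300 μM, 4% DMSO) and 5 μM fluorogenic substrate. Fluorescence (ex 360/em 460 nm) read at 37 °C; 0–20 min rates normalized to no-inhibitor, three-parameter IC50 fit, singlicate.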"}, "ClbP [2]": {"molecular_target": "T1, ClbP", "assay": "ClbP whole cell activity (inhibition) assay, fluorogenic substrate", "type": "cell-based, E. coli", "method_in_brief": "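E. coli ClbP+ overnight culture washed and concentrated fivefold in PBS, mixed with inhibitor (0–300 μM, 4% DMSO) and 5 μM fluorogenic substrate at 37 °C. Fluorescence (ex 360/em 460 nm) read every 2 min for 46 min. Rates from 10–30 min normalized to no inhibitor and fit to a three-parameter IC50.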"}, "Full-length WT ClbP": {"molecular_target": "Full-length WT ClbP (Escherichia coli, UniProt Q0P7K6)", "assay": "ClbP molecular (purified protein) enzymatic inhibition assay, fluorogenic substrate", "type": "biochemical, E. coli"}},
  "data": [
    {"molecule": "CCCCCCCC(=O)N[C@H](CC(N)=O)C(=O)NCCc1ccc(Cl)cc1", "note": "[Compound CXCIV]", "values": [
      {"measurement": "IC50", "setting": "ClbP [1]", "value": "< 100", "unit": "µM"},
      {"measurement": "IC50", "setting": "ClbP [2]", "value": "< 100", "unit": "µM"},
      {"measurement": "IC50", "setting": "Full-length WT ClbP", "value": "< 100", "unit": "µM"}
    ]},
    {"molecule": "CCCCCCCC(=O)N[C@H](CC(N)=O)C(=O)NCCc1ccc(OC)cc1", "note": "[Compound CXCIX]", "values": [
      {"measurement": "IC50", "setting": "ClbP [1]", "value": "< 100", "unit": "µM"},
      {"measurement": "IC50", "setting": "ClbP [2]", "value": "< 100", "unit": "µM"},
      {"measurement": "IC50", "setting": "Full-length WT ClbP", "value": "< 100", "unit": "µM"}
    ]},
    {"molecule": "CCCCCCCC(=O)N[C@H](CC(N)=O)[C@@H](O)CCCc1ccccc1", "note": "[Compound CXCI]", "values": [
      {"measurement": "IC50", "setting": "ClbP [1]", "value": "100 to 300", "unit": "µM"},
      {"measurement": "IC50", "setting": "ClbP [2]", "value": "< 100", "unit": "µM"},
      {"measurement": "IC50", "setting": "Full-length WT ClbP", "value": "100 to 300", "unit": "µM"}
    ]},
    {"molecule": "CCCCCCCC(=O)N[C@H](CC(N)=O)C(=O)NCCc1ccc(C(=O)O)cc1", "note": "[Compound CXCVIII]", "values": [
      {"measurement": "IC50", "setting": "ClbP [1]", "value": "100 to 300", "unit": "µM"},
      {"measurement": "IC50", "setting": "ClbP [2]", "value": "< 100", "unit": "µM"},
      {"measurement": "IC50", "setting": "Full-length WT ClbP", "value": "< 100", "unit": "µM"}
    ]},
    {"molecule": "CCCCCCCC(=O)N[C@H](CC(N)=O)C(=O)NCCc1ccc(C(=O)OC)cc1", "note": "[Compound CXCVII]", "values": [
      {"measurement": "IC50", "setting": "ClbP [1]", "value": "< 100", "unit": "µM"},
      {"measurement": "IC50", "setting": "ClbP [2]", "value": "< 100", "unit": "µM"},
      {"measurement": "IC50", "setting": "Full-length WT ClbP", "value": "< 100", "unit": "µM"}
    ]},
    {"molecule": "CCCCCCCC(=O)N[C@H](CC(N)=O)C(=O)NCCc1ccc(C)cc1", "note": "[Compound CXCVI]", "values": [
      {"measurement": "IC50", "setting": "ClbP [1]", "value": "< 100", "unit": "µM"},
      {"measurement": "IC50", "setting": "ClbP [2]", "value": "< 100", "unit": "µM"},
      {"measurement": "IC50", "setting": "Full-length WT ClbP", "value": "< 100", "unit": "µM"}
    ]},
    {"molecule": "CCCCCCCC(=O)N[C@H](CC(N)=O)C(=O)NCCc1ccc(C(F)(F)F)cc1", "note": "[Compound CXCV]", "values": [
      {"measurement": "IC50", "setting": "ClbP [1]", "value": "> 300", "unit": "µM"},
      {"measurement": "IC50", "setting": "ClbP [2]", "value": "> 300", "unit": "µM"},
      {"measurement": "IC50", "setting": "Full-length WT ClbP", "value": "100 to 300", "unit": "µM"}
    ]},
    {"molecule": "CCCCCCCC(=O)N[C@H](CC(N)=O)C(=O)NCCN1CCN(C)CC1", "note": "[Compound CXC]", "values": [
      {"measurement": "IC50", "setting": "ClbP [1]", "value": "> 300", "unit": "µM"},
      {"measurement": "IC50", "setting": "ClbP [2]", "value": "> 300", "unit": "µM"},
      {"measurement": "IC50", "setting": "Full-length WT ClbP", "value": "100 to 300", "unit": "µM"}
    ]},
    {"molecule": "CCCCCCCC(=O)N[C@H](CC(N)=O)C(=O)NCCc1ccccc1", "note": "[Compound III]", "values": [
      {"measurement": "IC50", "setting": "ClbP [1]", "value": "< 100", "unit": "µM"},
      {"measurement": "IC50", "setting": "ClbP [2]", "value": "< 100", "unit": "µM"},
      {"measurement": "IC50", "setting": "Full-length WT ClbP", "value": "< 100", "unit": "µM"}
    ]},
    {"molecule": "CCCCCCCC(=O)N[C@@H](CNCCc1ccccc1)CC(N)=O", "note": "[Compound IX]", "values": [
      {"measurement": "IC50", "setting": "ClbP [1]", "value": "> 300", "unit": "µM"},
      {"measurement": "IC50", "setting": "ClbP [2]", "value": "> 300", "unit": "µM"},
      {"measurement": "IC50", "setting": "Full-length WT ClbP", "value": "100 to 300", "unit": "µM"}
    ]},
    {"molecule": "CCCCCCCC(=O)N[C@H](CC(N)=O)C(=O)O[C@@H](C)C(=O)OC", "note": "[Compound LXXVI]", "values": [
      {"measurement": "IC50", "setting": "ClbP [1]", "value": "< 100", "unit": "µM"},
      {"measurement": "IC50", "setting": "ClbP [2]", "value": "< 100", "unit": "µM"},
      {"measurement": "IC50", "setting": "Full-length WT ClbP", "value": "100 to 300", "unit": "µM"}
    ]},
    {"molecule": "CCCCCCCC(=O)N[C@](C)(CC(N)=O)C(=O)NCCc1ccccc1", "note": "[Compound LXX]", "values": [
      {"measurement": "IC50", "setting": "ClbP [1]", "value": "> 300", "unit": "µM"},
      {"measurement": "IC50", "setting": "ClbP [2]", "value": "> 300", "unit": "µM"},
      {"measurement": "IC50", "setting": "Full-length WT ClbP", "value": "100 to 300", "unit": "µM"}
    ]},
    {"molecule": "CCCCCCCC(=O)N[C@@H](CNC(C)(C)C)CC(N)=O", "note": "[Compound VIII]", "values": [
      {"measurement": "IC50", "setting": "ClbP [1]", "value": "< 100", "unit": "µM"},
      {"measurement": "IC50", "setting": "ClbP [2]", "value": "< 100", "unit": "µM"},
      {"measurement": "IC50", "setting": "Full-length WT ClbP", "value": "< 100", "unit": "µM"}
    ]},
    {"molecule": "CCCCCCCC(=O)N[C@H](CC(N)=O)c1nnn(C(C)(C)C)n1", "note": "[Compound XIX]", "values": [
      {"measurement": "IC50", "setting": "ClbP [1]", "value": "> 300", "unit": "µM"},
      {"measurement": "IC50", "setting": "ClbP [2]", "value": "> 300", "unit": "µM"},
      {"measurement": "IC50", "setting": "Full-length WT ClbP", "value": "100 to 300", "unit": "µM"}
    ]},
    {"molecule": "CCCCCCCC(=O)N[C@H](CC(N)=O)c1nnn(CCc2ccccc2)n1", "note": "[Compound XVIII]", "values": [
      {"measurement": "IC50", "setting": "ClbP [1]", "value": "> 300", "unit": "µM"},
      {"measurement": "IC50", "setting": "ClbP [2]", "value": "> 300", "unit": "µM"},
      {"measurement": "IC50", "setting": "Full-length WT ClbP", "value": "100 to 300", "unit": "µM"}
    ]},
    {"molecule": "CCCCCCCC(=O)N[C@H](CC(N)=O)CN(C)CCc1ccccc1", "note": "[Compound XVI]", "values": [
      {"measurement": "IC50", "setting": "ClbP [1]", "value": "< 100", "unit": "µM"},
      {"measurement": "IC50", "setting": "ClbP [2]", "value": "> 300", "unit": "µM"},
      {"measurement": "IC50", "setting": "Full-length WT ClbP", "value": "< 100", "unit": "µM"}
    ]},
    {"molecule": "CCCCCCCCCC(=O)N[C@@H]1CC(=O)NC1(O)C(=O)NCc1ccccc1", "note": "(stereo partly drawn) [Compound […]]", "values": [
      {"measurement": "IC50", "setting": "ClbP [1]", "value": "100 to 300", "unit": "µM"},
      {"measurement": "IC50", "setting": "ClbP [2]", "value": "100 to 300", "unit": "µM"},
      {"measurement": "IC50", "setting": "Full-length WT ClbP", "value": "< 100", "unit": "µM"}
    ]}
  ]
}
